Laboratory results reported in paper PMC9743092, “Membrane-Active Cyclic Amphiphilic Peptides: Broad-Spectrum Antibacterial Activity Alone and in Combination with Antibiotics” (Journal of Medicinal Chemistry, 2022).
Square brackets hold non-standard residues; d marks the D form. Peptide text beside a SMILES is read from it.

Tests used:
MRSA (ATCC BAA-1556) = tested on: MRSA (ATCC BAA-1556); parameters: MIC MRSA: unit not given beside the values; conditions: supplementary csv, unit not given
[1] = tested on: K. pneumoniae (ATCC BAA-1705); conditions: supplementary csv, unit not given
[2] = tested on: P. aeruginosa (ATCC 27883); parameters: MIC P. aeruginosa: unit not given beside the values; conditions: supplementary csv, unit not given
E. coli (ATCC 25922) = tested on: E. coli (ATCC 25922); parameters: MIC E. coli: unit not given beside the values; conditions: supplementary csv, unit not given
[3] = tested on: human red blood cells (hRBCs); conditions: red cells of human, 2 h

Row | MIC K. pneumoniae [1] | MIC P. aeruginosa [2] | Structure (SMILES) | MIC MRSA (MRSA (ATCC BAA-1556)) | MIC E. coli (E. coli (ATCC 25922)) | HC50 [3] [µg/mL]
1 | 256 | 256 | N=C(N)NCCC[C@@H]1NC(=O)[C@H](CCCNC(=N)N)NC(=O)[C@H](Cc2c[nH]c3ccccc23)NC(=O)[C@H](Cc2c[nH]c3ccccc23)NC(=O)[C@H](Cc2c[nH]c3ccccc23)NC(=O)[C@H](Cc2c[nH]c3ccccc23)NC1=O [2b, [R2W4]] (cyclo(RRWWWW); ring closure inferred) | 64 | 256 | 85
2 |  |  | N=C(N)NCCC[C@@H]1NC(=O)[C@H](CCCNC(=N)N)NC(=O)[C@H](Cc2c[nH]c3ccccc23)NC(=O)[C@H](Cc2c[nH]c3ccccc23)NC(=O)[C@H](Cc2c[nH]c3ccccc23)NC(=O)[C@H](Cc2c[nH]c3ccccc23)NC(=O)[C@H](Cc2c[nH]c3ccccc23)NC(=O)[C@H](CCCNC(=N)N)NC1=O [3c, [R3W5]] (cyclo(RRRWWWWW); ring closure inferred) |  |  | 80
3 | 64 | 256 | N=C(N)NCCC[C@@H]1NC(=O)[C@H](CCCNC(=N)N)NC(=O)[C@H](Cc2c[nH]c3ccccc23)NC(=O)[C@H](Cc2c[nH]c3ccccc23)NC(=O)[C@H](Cc2c[nH]c3ccccc23)NC(=O)[C@H](Cc2c[nH]c3ccccc23)NC(=O)[C@H](Cc2c[nH]c3ccccc23)NC(=O)[C@H](Cc2c[nH]c3ccccc23)NC(=O)[C@H](Cc2c[nH]c3ccccc23)NC(=O)[C@H](CCCNC(=N)N)NC1=O [3e, [R3W7]] (cyclo(RRRWWWWWWW)) | 256 | 256 | 60
4 | 256 | 256 | N=C(N)NCCC[C@H]1NC(=O)[C@H](Cc2c[nH]c3ccccc23)NC(=O)[C@H](Cc2c[nH]c3ccccc23)NC(=O)[C@H](Cc2c[nH]c3ccccc23)NC(=O)[C@H](Cc2c[nH]c3ccccc23)NC(=O)[C@H](Cc2c[nH]c3ccccc23)NC(=O)[C@H](Cc2c[nH]c3ccccc23)NC(=O)[C@H](Cc2c[nH]c3ccccc23)NC(=O)[C@@H](CCCNC(=N)N)NC(=O)[C@@H](CCCNC(=N)N)NC1=O [3f, [dR3W7]] (cyclo([dR][dR][dR]WWWWWWW)) | 64 | 256 | 
5 | 64 | 64 | N=C(N)NCCC[C@H]1NC(=O)[C@H](Cc2c[nH]c3ccccc23)NC(=O)[C@H](Cc2c[nH]c3ccccc23)NC(=O)[C@H](Cc2c[nH]c3ccccc23)NC(=O)[C@H](Cc2c[nH]c3ccccc23)NC(=O)[C@@H](CCCNC(=N)N)NC(=O)[C@@H](CCCNC(=N)N)NC(=O)[C@@H](CCCNC(=N)N)NC1=O [4a, [dR4W4]] (cyclo([dR][dR][dR][dR]WWWW)) | 8 | 16 | 110
6 | 128 | 128 | N=C(N)NCCC[C@@H]1NC(=O)[C@H](CCCNC(=N)N)NC(=O)[C@H](CCCNC(=N)N)NC(=O)[C@H](Cc2c[nH]c3ccccc23)NC(=O)[C@H](Cc2c[nH]c3ccccc23)NC(=O)[C@H](Cc2c[nH]c3ccccc23)NC(=O)[C@H](Cc2c[nH]c3ccccc23)NC(=O)[C@H](Cc2c[nH]c3ccccc23)NC(=O)[C@H](CCCNC(=N)N)NC1=O [4b, [R4W5]] | 8 | 64 | 100
7 | 256 | >256 | N=C(N)NCCC[C@@H]1NC(=O)[C@H](CCCNC(=N)N)NC(=O)[C@H](CCCNC(=N)N)NC(=O)[C@H](Cc2c[nH]c3ccccc23)NC(=O)[C@H](Cc2c[nH]c3ccccc23)NC(=O)[C@H](Cc2c[nH]c3ccccc23)NC(=O)[C@H](Cc2c[nH]c3ccccc23)NC(=O)[C@H](Cc2c[nH]c3ccccc23)NC(=O)[C@H](Cc2c[nH]c3ccccc23)NC(=O)[C@H](Cc2c[nH]c3ccccc23)NC(=O)[C@H](CCCNC(=N)N)NC1=O [4d, [R4W7]] (cyclo(RRRRWWWWWWW)) | 256 | 128 | 60
8 | >256 | >256 | N=C(N)NCCC[C@@H]1NC(=O)[C@H](CCCNC(=N)N)NC(=O)[C@H](CCCNC(=N)N)NC(=O)[C@H](Cc2c[nH]c3ccccc23)NC(=O)[C@H](Cc2c[nH]c3ccccc23)NC(=O)[C@H](Cc2c[nH]c3ccccc23)NC(=O)[C@H](Cc2c[nH]c3ccccc23)NC(=O)[C@H](Cc2c[nH]c3ccccc23)NC(=O)[C@H](Cc2c[nH]c3ccccc23)NC(=O)[C@H](CCCNC(=N)N)NC(=O)[C@H](CCCNC(=N)N)NC1=O [5c, [R5W6]] (cyclo(RRRRRWWWWWW)) | >256 | >256 | 140
9 | >256 | >256 | N=C(N)NCCC[C@@H]1NC(=O)[C@H](CCCNC(=N)N)NC(=O)[C@H](CCCNC(=N)N)NC(=O)[C@H](Cc2c[nH]c3ccccc23)NC(=O)[C@H](Cc2c[nH]c3ccccc23)NC(=O)[C@H](Cc2c[nH]c3ccccc23)NC(=O)[C@H](Cc2c[nH]c3ccccc23)NC(=O)[C@H](Cc2c[nH]c3ccccc23)NC(=O)[C@H](Cc2c[nH]c3ccccc23)NC(=O)[C@H](Cc2c[nH]c3ccccc23)NC(=O)[C@H](CCCNC(=N)N)NC(=O)[C@H](CCCNC(=N)N)NC1=O [5d, [R5W7]] (cyclo(RRRRRWWWWWWW)) | >256 | >256 | 115
10 |  |  | N=C(N)NCCC[C@@H]1NC(=O)[C@H](CCCNC(=N)N)NC(=O)[C@H](CCCNC(=N)N)NC(=O)[C@H](CCCNC(=N)N)NC(=O)[C@H](Cc2c[nH]c3ccccc23)NC(=O)[C@H](Cc2c[nH]c3ccccc23)NC(=O)[C@H](Cc2c[nH]c3ccccc23)NC(=O)[C@H](Cc2c[nH]c3ccccc23)NC(=O)[C@H](Cc2c[nH]c3ccccc23)NC(=O)[C@H](CCCNC(=N)N)NC(=O)[C@H](CCCNC(=N)N)NC(=O)[C@H](CCCNC(=N)N)NC1=O [7b, [R7W5]] (cyclo(RRRRRRRWWWWW)) | 8 | 64 | 175
11 |  |  | N=C(N)NCCC[C@@H]1NC(=O)[C@H](CCCNC(=N)N)NC(=O)[C@H](CCCNC(=N)N)NC(=O)[C@H](CCCNC(=N)N)NC(=O)[C@H](Cc2c[nH]c3ccccc23)NC(=O)[C@H](Cc2c[nH]c3ccccc23)NC(=O)[C@H](Cc2c[nH]c3ccccc23)NC(=O)[C@H](Cc2c[nH]c3ccccc23)NC(=O)[C@H](Cc2c[nH]c3ccccc23)NC(=O)[C@H](Cc2c[nH]c3ccccc23)NC(=O)[C@H](CCCNC(=N)N)NC(=O)[C@H](CCCNC(=N)N)NC(=O)[C@H](CCCNC(=N)N)NC1=O [7c, [R7W6]] (cyclo(RRRRRRRWWWWWW)) | 32 | 64 | 170
12 |  |  | N=C(N)NCCC[C@@H]1NC(=O)[C@H](CCCNC(=N)N)NC(=O)[C@H](CCCNC(=N)N)NC(=O)[C@H](CCCNC(=N)N)NC(=O)[C@H](Cc2c[nH]c3ccccc23)NC(=O)[C@H](Cc2c[nH]c3ccccc23)NC(=O)[C@H](Cc2c[nH]c3ccccc23)NC(=O)[C@H](Cc2c[nH]c3ccccc23)NC(=O)[C@H](Cc2c[nH]c3ccccc23)NC(=O)[C@H](Cc2c[nH]c3ccccc23)NC(=O)[C@H](Cc2c[nH]c3ccccc23)NC(=O)[C@H](CCCNC(=N)N)NC(=O)[C@H](CCCNC(=N)N)NC(=O)[C@H](CCCNC(=N)N)NC1=O [7d, [R7W7]] (cyclo(RRRRRRRWWWWWWW)) | 16 | 32 | 140

Row | Structure (SMILES) | MIC K. pneumoniae [1] | MIC P. aeruginosa [2] | MIC MRSA (MRSA (ATCC BAA-1556)) | MIC E. coli (E. coli (ATCC 25922)) | HC50 [3] [µg/mL]
13 | N=C(N)NCCC[C@@H]1NC(=O)[C@H](CCCNC(=N)N)NC(=O)[C@H](Cc2c[nH]c3ccccc23)NC(=O)[C@H](Cc2c[nH]c3ccccc23)NC(=O)[C@H](Cc2c[nH]c3ccccc23)NC1=O [2a, [R2W3]] (cyclo(RRWWW); ring closure inferred) | 256 | 256 | 32 | 256 | 120
14 | N=C(N)NCCC[C@@H]1NC(=O)[C@H](CCCNC(=N)N)NC(=O)[C@H](Cc2c[nH]c3ccccc23)NC(=O)[C@H](Cc2c[nH]c3ccccc23)NC(=O)[C@H](Cc2c[nH]c3ccccc23)NC(=O)[C@H](CCCNC(=N)N)NC1=O [3a, [R3W3]] (cyclo(WWWRRR); ring closure inferred) | 64 | 128 | 16 | 32 | 155
15 | N=C(N)NCCC[C@@H]1NC(=O)[C@H](CCCNC(=N)N)NC(=O)[C@H](Cc2c[nH]c3ccccc23)NC(=O)[C@H](Cc2c[nH]c3ccccc23)NC(=O)[C@H](Cc2c[nH]c3ccccc23)NC(=O)[C@H](Cc2c[nH]c3ccccc23)NC(=O)[C@H](CCCNC(=N)N)NC1=O [3b, [R3W4]] (cyclo(RRRWWWW); ring closure inferred) | 64 | 256 | 8 | 32 | 105
16 | N=C(N)NCCC[C@@H]1NC(=O)[C@H](CCCNC(=N)N)NC(=O)[C@H](Cc2c[nH]c3ccccc23)NC(=O)[C@H](Cc2c[nH]c3ccccc23)NC(=O)[C@H](Cc2c[nH]c3ccccc23)NC(=O)[C@H](Cc2c[nH]c3ccccc23)NC(=O)[C@H](Cc2c[nH]c3ccccc23)NC(=O)[C@H](Cc2c[nH]c3ccccc23)NC(=O)[C@H](CCCNC(=N)N)NC1=O [3d, [R3W6]] | 128 | 256 | 64 | 64 | 65
17 | N=C(N)NCCC[C@@H]1NC(=O)[C@H](CCCNC(=N)N)NC(=O)[C@H](CCCNC(=N)N)NC(=O)[C@H](Cc2c[nH]c3ccccc23)NC(=O)[C@H](Cc2c[nH]c3ccccc23)NC(=O)[C@H](Cc2c[nH]c3ccccc23)NC(=O)[C@H](Cc2c[nH]c3ccccc23)NC(=O)[C@H](Cc2c[nH]c3ccccc23)NC(=O)[C@H](Cc2c[nH]c3ccccc23)NC(=O)[C@H](CCCNC(=N)N)NC1=O [4c, [R4W6]] | 256 | 128 | 128 | 128 | 75
